# Assay results from patent publication US20070179112A1, “POLYMERIC NUCLEOSIDE PRODRUGS” (Reliable Biopharmaceutical, Inc., priority 2000, published 2007).
# Experiments:
# [1] = tested on: Snake Venom PhosphoDiEsterase, SVPDE (Phosphodiesterase I Type II)
# snake phosphodiesterase = assay: Cleavage of oligo 6 by snake phosphodiesterase (Boehringer Mannheim), monitored by CGE; format: in vitro ADME, crotalus durissus; settings: 0.5 μl enzyme in water (total volume 25 μl)
# Method: Examples 13-22 describe cleavage of the Oligos 1-7. All cleavage experiments were performed at room temperature. The concentrations of the nucleases were reduced to slow down the rates of cleavage for the homoploymers. See S. Agrawal, in Delivery Strategies for Antisense Oligonucleotide Therapeutics, 275, 462-473, Ed. S. Akhtar, CAC Press, 1995. The Capillary Gel Electrophoresis equipment used for the studies were the Beckmman PAC/E 2200 system with Beckman Coulter E-CAP DNA capillary (#477477, […], 65 cm [27 cm effective length] loaded with Beckman Coulter E-CAP ssDNA 100-R gel and run using the Tris-Borate-Urea buffer prepared according to Beckman procedures. The CGE running conditions were as follows. The injection was done for 2 seconds at 10 kV followed by electro-osmotic flow with buffer for 30-60 min as needed at 10 kV. The cleavage reactions were monitored in most cases after 1, 2, 4, 5, 7, 10, 12, 15, 17 and 20 hrs. Some reactions were monitored after 5, 10 minutes and others after 72 and 100 hrs. The SVPDE is obtained from two different species of snakes, crotalus adamanteus and crotalus durissus. It has been observed that there is no variation in the cleavage experiments as a result of this change. […]
substance,measurement,setting,value
([cytarabine-pO]3-[2′O-methylcytidine-pO]2)3 [Oligo 2],full length oligo cleaved (estimated),[1],more than 50%
same,ratio of 2′O-MeCMP to dCMP reached as the cleavage progressed,[1],5
same,ratio of araCMP to dCMP reached as the cleavage progressed,[1],6
[2′O-methylcytarabine-pO] 15-dC [Oligo 5],oligonucleotide degraded,[1],more than 80%
"[dC-pO] 14-dC-OH [Oligo 6, reference compound]",cleavage/degradation observed by CGE,snake phosphodiesterase; after 30 minutes,a series of shorter oligomers due to partial cleavage was observed
same,cleavage/degradation observed by CGE,snake phosphodiesterase; after 2 hours,no full length oligonucleotide was observed
same,digestion,[1],more than 90%
(cytarabine-pO)15-dC [Oligo 1],cleavage/degradation observed by CGE,[1],minor cleavage
same,oligonucleotide degraded to monomers,[1],~20%
same,oligonucleotide degraded to oligomers of smaller lengths,[1],~50%
same,ratio of araCMP to dCMP reached as the cleavage progressed,[1],13
same,"ratio of araCMP to dCMP, starting value as the cleavage progressed",[1],3
"polycylidilic acid [Oligo 7, reference compound]",digestion,[1],more than 90%
